Experimental data taken from patent publication US9605006B2, “5-aryl-1-imino-1-oxo-[1,2,4]thiadiazines” (Hoffmann-La Roche Inc., priority 2013, dated 2017).
pIC50: −log10 of the molar value.

These compounds were tested against BACE1 (Homo sapiens (Human), UniProt P56817) (assay: Cellular Aβ-lowering assay (Abeta 40 AlphaLISA Assay)). Conditions: HEK293 APP cells, Aβ40 in culture supernatant after 18-20 hrs incubation.
BACE1, sequence (P56817 46-501): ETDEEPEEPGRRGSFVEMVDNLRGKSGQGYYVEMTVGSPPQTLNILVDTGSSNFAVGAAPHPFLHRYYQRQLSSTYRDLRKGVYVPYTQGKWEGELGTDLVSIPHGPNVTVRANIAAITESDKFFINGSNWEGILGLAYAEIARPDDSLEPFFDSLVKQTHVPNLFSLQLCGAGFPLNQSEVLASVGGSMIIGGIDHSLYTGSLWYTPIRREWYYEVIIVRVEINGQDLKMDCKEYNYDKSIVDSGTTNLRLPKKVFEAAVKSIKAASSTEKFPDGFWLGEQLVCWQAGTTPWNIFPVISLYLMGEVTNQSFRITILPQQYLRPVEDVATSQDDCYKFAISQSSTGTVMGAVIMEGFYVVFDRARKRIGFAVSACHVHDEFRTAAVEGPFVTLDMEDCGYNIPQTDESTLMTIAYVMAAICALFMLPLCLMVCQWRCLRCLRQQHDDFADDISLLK
Assay type: cell-based
Experimental: Cellular Aβ-Lowering Assay:
The Abeta 40 AlphaLISA Assay can be used. The HEK293 APP cells were seeded in 96 well Microtiter plates in cell culture medium (Iscove's, plus 10% (v/v) fetal bovine serum, penicillin/streptomycin) to about 80% confluency and the compounds were added at a 3× concentration in ⅓ volume of culture medium (final DMSO concentration was kept at 1% v/v). After 18-20 hrs incubation at 37° C. and 5% CO2 in a humidified incubator, the culture supernatants were harvested for the determination of Aβ40 concentrations using Perkin-Elmer Human Amyloid beta 1-40 (high specificity) Kit (Cat# AL275C).
In a Perkin-Elmer White Optiplate-384 (Cat#6007290), 2 ul culture supernatants were combined with 2μl of a 10× AlphaLISA Anti-hAβAcceptor beads+Biotinylated Antibody Anti-Aβ1-40 Mix (50 μg/mL/5 nM). After 1 hour room temperature incubation, 16 μl of a 1.25× preparation of Streptavidin (SA) Donor beads (25 μg/mL) were added and incubated for 30 minutes in the Dark. Light Emission at 615 nm was then recorded using EnVision-Alpha Reader. Levels of Aβ40 in the culture supernatants were calculated as percentage of maximum signal (cells treated with 1% DMSO without inhibitor). The IC50 values were calculated using the Excel XLfit software.
For CC1(c2cc(NC(=O)c3ccc(C#N)cn3)ccc2F)CS2(=O)=NCCCCN2C(N)=N1 (stereo in doubt) [Example 2, 5-cyano-pyridine-2-carboxylic acid [3-((3RS,4aSR)-1-amino-3-methyl-4a-oxo-3,4,6,7,8,9-hexahydro-4aλ^6-thia-2,5,9a-triaza-benzocyclohepten-3-yl)-4-fluoro-phenyl]-amide], the pIC50 was 8.70.
Compound C[C@@]1(c2cc(NC(=O)c3ccc(OCC(F)(F)F)cn3)ccc2F)CS2(=O)=NCCCCN2C(N)=N1 (stereo in doubt) [Example 21, 5-(2,2,2-Trifluoro-ethoxy)-pyridine-2-carboxylic acid [3-((3R,4aS)-1-amino-3-methyl-4a-oxo-3,4,6,7,8,9-hexahydro-4aλ^6-thia-2,5,9a-triaza-benzocyclohepten-3-yl)-4-fluoro-phenyl]-amide] has a pIC50 of 8.00.
In the case of C[C@@]1(c2cc(-c3cc(-c4ncc(Cl)cn4)no3)ccc2F)C[S@@]2(=O)=NCCCCN2C(N)=N1 [Example 13, (9R,11R)-7-Amino-9-(5-(3-(5-chloropyrimidin-2-yl)isoxazol-5-yl)-2-fluorophenyl)-9-methyl-2,3,4,5,9,10-hexahydro-[1,2,4]thiadiazino[1,2-a][1,2,7]thiadiazepine 11-oxide 2,2,2-trifluoroacetate], the pIC50 was 7.92.
CC1(c2ccccc2F)CS2(=O)=NCCCCN2C(N)=N1 (stereo in doubt) [Example A20a2, (3RS,4aSR)-3-(2-Fluoro-phenyl)-3-methyl-4a-oxo-3,4,6,7,8,9-hexahydro-4aλ^6-thia-2,5,9a-triaza-benzocyclohepten-1-ylamine] was tested, and the pIC50 was 5.98.
Work on C[C@@]1(c2cc(-c3cn(-c4ccc(C#N)cn4)nn3)ccc2F)C[S@]2(=O)=NCCCCN2C(N)=N1 [Example 15, 6-(4-(3-((9R,11S)-7-Amino-9-methyl-11-oxido-2,3,4,5,9,10-hexahydro-[1,2,4]thiadiazino[1,2-a][1,2,7]thiadiazepin-9-yl)-4-fluorophenyl)-1H-1,2,3-triazol-1-yl)nicotinonitrile 2,2,2-trifluoroacetate] yielded a pIC50 of 7.02.
For C[C@@]1(c2cc(C#Cc3ccc(C#N)cc3)ccc2F)C[S@@]2(=O)=NCCCCN2C(N)=N1 [Example 16, 4-((3-((9R,11R)-7-amino-9-methyl-11-oxido-2,3,4,5,9,10-hexahydro-[1,2,4]thiadiazino[1,2-a][1,2,7]thiadiazepin-9-yl)-4-fluorophenyl)ethynyl)benzonitrile 2,2,2-trifluoroacetate], the pIC50 was 7.68.
With Cc1cc(F)cnc1C(=O)Nc1ccc(F)c([C@]2(C)CS3(=O)=NCCCCN3C(N)=N2)c1 (stereo in doubt) [Example 23, 5-Fluoro-3-methyl-pyridine-2-carboxylic acid [3-((3R,4aS)-1-amino-3-methyl-4a-oxo-3,4,6,7,8,9-hexahydro-4aλ^6-thia-2,5,9a-triaza-benzocyclohepten-3-yl)-4-fluoro-phenyl]-amide] the pIC50 was 8.82.
Work on C[C@@]1(c2cc(NC(=O)c3ncc(C#N)cc3Cl)ccc2F)CS2(=O)=NCCCCN2C(N)=N1 (stereo in doubt) [Example 20, 3-Chloro-5-cyano-pyridine-2-carboxylic acid [3-((3R,4aS)-1-amino-3-methyl-4a-oxo-3,4,6,7,8,9-hexahydro-4aλ^6-thia-2,5,9a-triaza-benzocyclohepten-3-yl)-4-fluoro-phenyl]-amide] yielded a pIC50 of 9.00.
For CC#CCOc1cnc(C(=O)Nc2ccc(F)c([C@]3(C)CS4(=O)=NCCCCN4C(N)=N3)c2)cn1 (stereo in doubt) [Example 22, 5-But-2-ynyloxy-pyrazine-2-carboxylic acid [3-((3R,4aS)-1-amino-3-methyl-4a-oxo-3,4,6,7,8,9-hexahydro-4aλ^6-thia-2,5,9a-triaza-benzocyclohepten-3-yl)-4-fluoro-phenyl]-amide], the pIC50 was 9.70.
With COc1cnc(-c2cc(-c3ccc(F)c([C@]4(C)C[S@@]5(=O)=NCCCCN5C(N)=N4)c3)on2)cn1 [Example 17, (9R,11R)-7-Amino-9-(2-fluoro-5-(3-(5-methoxypyrazin-2-yl)isoxazol-5-yl)phenyl)-9-methyl-2,3,4,5,9,10-hexahydro-[1,2,4]thiadiazino[1,2-a][1,2,7]thiadiazepine 11-oxide 2,2,2-trifluoroacetate] the pIC50 was 8.05.
For CC1(c2cc(NC(=O)c3ccc(C#N)cn3)ccc2F)CS2(=O)=NCCCCN2C(N)=N1 (stereo in doubt) [Example 1, 5-cyano-pyridine-2-carboxylic acid [3-((3RS,4aRS)-1-amino-3-methyl-4a-oxo-3,4,6,7,8,9-hexahydro-4aλ^6-thia-2,5,9a-triaza-benzocyclohepten-3-yl)-4-fluoro-phenyl]-amide], the pIC50 was 7.35.
For Cc1cc(C#N)cnc1C(=O)Nc1ccc(F)c([C@]2(C)CS3(=O)=NCC(F)(F)CN3C(N)=N2)c1 (stereo partly drawn) [Example 25, N-(3-((8R)-6-amino-3,3-difluoro-8-methyl-10-oxido-3,4,8,9-tetrahydro-2H-[1,2,6]thiadiazino[1,2-a][1,2,4]thiadiazin-8-yl)-4-fluorophenyl)-5-cyano-3-methylpicolinamide], the pIC50 was 8.70.
Work on C[C@@]1(c2cc(-c3cc(-c4cnc(OCC(F)F)cn4)no3)ccc2F)C[S@@]2(=O)=NCCCCN2C(N)=N1 [Example 19, (9R,11R)-7-Amino-9-(5-(3-(5-(2,2-difluoroethoxy)pyrazin-2-yl)isoxazol-5-yl)-2-fluorophenyl)-9-methyl-2,3,4,5,9,10-hexahydro-[1,2,4]thiadiazino[1,2-a][1,2,7]thiadiazepine 11-oxide 2,2,2-trifluoroacetate] yielded a pIC50 of 7.85.
Work on COc1cnc(-c2cc(-c3ccc(F)c([C@]4(C)C[S@]5(=O)=NCCCCN5C(N)=N4)c3)on2)cn1 [Example 18, (9R,11S)-7-amino-9-(2-fluoro-5-(3-(5-methoxypyrazin-2-yl)isoxazol-5-yl)phenyl)-9-methyl-2,3,4,5,9,10-hexahydro-[1,2,4]thiadiazino[1,2-a][1,2,7]thiadiazepine 11-oxide 2,2,2-trifluoroacetate] yielded a pIC50 of 6.16.
Compound C[C@@]1(c2cc(-c3cc(-c4ncc(Cl)cn4)no3)ccc2F)C[S@]2(=O)=NCCCCN2C(N)=N1 [Example 14, (9R,11S)-7-Amino-9-(5-(3-(5-chloropyrimidin-2-yl)isoxazol-5-yl)-2-fluorophenyl)-9-methyl-2,3,4,5,9,10-hexahydro-[1,2,4]thiadiazino[1,2-a][1,2,7]thiadiazepine 11-oxide 2,2,2-trifluoroacetate] has a pIC50 of 7.02.
